Assay results as given in US11173178B2, “Liposomes for drug delivery and methods for preparation thereof” (priority 2008, dated 2021).

Test: Stability of oxaliplatin in hydration solution (UV, absorbance at 254 nm)
Assay type: physicochemical
Experimental: Oxaliplatin was dissolved in a hydration solution containing 10% sucrose and 1 mM Calcium gluconate (10 mg/ml). Sucrose was added to obtain an osmolarity approximately corresponding to physiological salt concentration. Stability of oxaliplatin in the hydration solution was followed by UV measurement. Samples were taken continually during storage at room temperature. Sample concentration measured was 0.1 mg/ml oxaliplatin. In order to follow the oxaliplatin stability a scan was performed from 200-350 nm (FIG. 1) and the absorbance at 254 nm was compared during storage (FIG. 2). Major changes in absorbance at 254 nm are usually related to oxaliplatin decomposition, which can easily be observed by dissolving oxaliplatin in solutions containing hydroxide and/or chloride ions.

O=C1[O][Pt]2([NH][C@@H]3CCCC[C@H]3[NH]2)[O]C1=O [Oxaliplatin, oxaliplatin]
decomposition during storage (absorbance at 254 nm) (10% sucrose solution containing 1 mM calcium gluconate, room temperature, at least 35 days): practically no decomposition | absorbance at 254 nm with common buffer components (phosphate, citrate, acetate, ethanolamine (data not shown)): decrease the absorbance at 254 nm
